The nature of data set [1]: in vivo. Conditions: rat, po, 10 ug. The procedure: Size of the drug particles and liposomes in all the formulations was kept between 10-15 μm, as the particles with 10-20 μm are all deposited in the nasal cavity, whereas particles smaller than 1 μm pass with inspired air into the lungs.
Suspension containing 10-μg levonorgestrel was administered intranasally in three different group of rats.
Blood samples were collected at specific time points and plasma levonorgestrel concentrations were estimated. The drug plasma concentration at each sampling time point were plotted against time in hr.
The mucociliary clearance under normal conditions rapidly clears the applied material since there is a little time of contact between the drug and the mucosa. […] CS acts by opening tight junction between epithelial cells.

Data set [2] in a line: in vivo. Particulars: rat, po. The procedure:
Similarly, 10-μg of LN suspension was administered orally. Blood samples were collected at specific time points and plasma LN concentrations were estimated. The drug plasma concentration at each sampling time points were plotted against time in hr.
Various pharmacokinetic parameters (Cmax, Tmax and t1/2) were determined from drug plasma concentration-time curve. The area under the plasma level curve was calculated by the trapezoidal rule.

Each structure is given as a SMILES string.

Turning to `C#C[C@]1(O)CC[C@H]2[C@@H]3CCC4=CC(=O)CC[C@@H]4[C@H]3CC[C@@]21CC` [levonorgestrel], in “in vivo [1]”, the Cmax is 14.4 ng/mL, the Tmax amounted to 2.1 h and the half-life is 16.9 h. In “in vivo [2]”, the peak concentration (Cmax) was found to be 14.4 ng/mL and the half-life is 16.9 h.

By Cmax is commonly meant the maximum level reached in the sampled fluid or tissue. The term Tmax denotes the time from dosing to the highest level. As a reminder, the half-life is the time in which the quantity being followed falls by half. High values mean slow loss, low ones fast loss.
